Laboratory results as given in patent publication US4359466A, “Guanidine compounds” (Smith Kline & French Laboratories Limited, priority 1980, dated 1982).

Test system: histamine H2 -receptors
Assay: inhibition of histamine-stimulated secretion of gastric acid from the lumen-perfused stomachs of rats anaesthetised with urethane
Type: in vivo
Details: i.v., lumen-perfused stomach of urethane-anaesthetised rats

Compound: N=C(N)Nc1nc(CSCCNc2[nH]ccc2[N+](=O)[O-])cs1 [Example 1, 2-[2-(2-Guanidino-4-thiazolylmethylthio)ethylamino]-3-nitropyrrole]
- dose causing 50% inhibition of maximal acid secretion: less than 0.1 micromole kg^-1
